Assay results reported in patent US10743540B2, “3-amino-1,2,4-triazine derivatives and their use for controlling undesired plant growth” (BAYER CROPSCIENCE AKTIENGESELLSCHAFT, priority 2016, dated 2020).

Experiments:
Assay type in all cases: in vivo
VERPE: Veronica persica [1] = assay: Post-emergence herbicidal effect; conditions: application rate 320 g/ha, treated at one-leaf stage, assessed visually after about 3 weeks, 100% = plants have died
Description: (§1) [table] 2. Post-Emergence Herbicidal Effect and Crop Plant Compatibility Seeds of monocotyledonous and dicotyledonous weed and crop plants are laid out in sandy loam soil in wood-fiber pots, covered with soil and cultivated in a greenhouse under good growth conditions. 2 to 3 weeks after sowing, the test plants are treated at the one-leaf stage. The compounds of the invention, formulated in the form of wettable powders (WP) or as emulsion concentrates (EC), are then sprayed onto the green parts of the plants as aqueous suspension or emulsion at a water application rate equating to 600 to 800 L/ha with addition of 0.2% wetting agent. After the test plants have been left to stand in the greenhouse under optimal growth conditions for about 3 weeks, the action of the preparations is assessed visually in comparison to untreated controls (herbicidal action in percent (%): 100% activity=the plants have died, 0% activity=like control plants).

VIOTR: Viola tricolor = assay: Post-emergence herbicidal effect; conditions: application rate 320 g/ha, treated at one-leaf stage, assessed visually after about 3 weeks, 100% = plants have died
Description: as §1

STEME: Stellaria media [2] = assay: Pre-emergence herbicidal effect; conditions: application rate 320 g/ha, scored visually after 3 weeks, 100% = plants have died, 0% = like control plants
Excerpt: (§2) 1. Pre-Emergence Herbicidal Effect and Crop Plant Compatibility Seeds of monocotyledonous and dicotyledonous weed plants and crop plants are laid out in sandy loam soil in wood-fiber pots and covered with soil. The compounds of the invention, formulated in the form of wettable powders (WP) or as emulsion concentrates (EC), are then applied to the surface of the covering soil as aqueous suspension or emulsion at a water application rate equating to 600 to 800 L/ha with addition of 0.2% wetting agent. After the treatment, the pots are placed in a greenhouse and kept under good growth conditions for the trial plants. The damage to the test plants is scored visually after a test period of 3 weeks by comparison with untreated controls (herbicidal activity in percent (%): 100% activity=the plants have died, 0% activity=like control plants). [table]

VERPE: Veronica persica [3] = assay: Pre-emergence herbicidal effect; conditions: application rate 320 g/ha, scored visually after 3 weeks, 100% = plants have died, 0% = like control plants
Excerpt: as §2

[4] = test system: LOLMU: Lolium multiflorum; assay: Pre-emergence herbicidal effect; conditions: application rate 320 g/ha, scored visually after 3 weeks, 100% = plants have died, 0% = like control plants
Excerpt: as §2

[5] = test system: POLCO: Polygonum convolvulus; assay: Pre-emergence herbicidal effect; conditions: application rate 320 g/ha, scored visually after 3 weeks, 100% = plants have died, 0% = like control plants
Excerpt: as §2

[6] = test system: ECHCG: Echinochloa crus-galli; assay: Pre-emergence herbicidal effect; conditions: application rate 320 g/ha, scored visually after 3 weeks, 100% = plants have died, 0% = like control plants
Excerpt: as §2

[7] = test system: ABUTH: Abutilon theophrasti; assay: Pre-emergence herbicidal effect; conditions: application rate 320 g/ha, scored visually after 3 weeks, 100% = plants have died, 0% = like control plants
Excerpt: as §2

[8] = test system: ALOMY: Alopecurus myosuroides; assay: Pre-emergence herbicidal effect; conditions: application rate 320 g/ha, scored visually after 3 weeks, 100% = plants have died, 0% = like control plants
Excerpt: as §2

SETVI: Setaria viridis = assay: Pre-emergence herbicidal effect; conditions: application rate 320 g/ha, scored visually after 3 weeks, 100% = plants have died, 0% = like control plants
Excerpt: as §2

[9] = test system: MATIN: Matricaria inodora; assay: Pre-emergence herbicidal effect; conditions: application rate 320 g/ha, scored visually after 3 weeks, 100% = plants have died, 0% = like control plants
Excerpt: as §2

STEME: Stellaria media [10] = assay: Post-emergence herbicidal effect; conditions: application rate 320 g/ha, treated at one-leaf stage, assessed visually after about 3 weeks, 100% = plants have died
Description: as §1

[11] = test system: AMARE: Amaranthus retroflexus; assay: Post-emergence herbicidal effect; conditions: application rate 320 g/ha, treated at one-leaf stage, assessed visually after about 3 weeks, 100% = plants have died
Description: as §1

[12] = test system: ALOMY: Alopecurus myosuroides; assay: Post-emergence herbicidal effect; conditions: application rate 320 g/ha, treated at one-leaf stage, assessed visually after about 3 weeks, 100% = plants have died
Description: as §1

SMILES | Herbicidal activity with respect to [%] VERPE (VERPE: Veronica persica [1]) [%] | Herbicidal activity with respect to [%] VIOTR (VIOTR: Viola tricolor) [%] | Herbicidal activity with respect to [%] STEME (STEME: Stellaria media [2]) [%] | Herbicidal activity with respect to [%] VERPE (VERPE: Veronica persica [3]) [%] | Herbicidal activity with respect to [%] LOLMU [4] [%] | Herbicidal activity with respect to [%] POLCO [5] [%] | Herbicidal activity with respect to [%] ECHCG [6] [%] | Herbicidal activity with respect to [%] ABUTH [7] [%] | Herbicidal activity with respect to [%] ALOMY [8] [%] | Herbicidal activity with respect to [%] SETVI (SETVI: Setaria viridis) [%] | Herbicidal activity with respect to [%] MATIN [9] [%] | Herbicidal activity with respect to [%] STEME (STEME: Stellaria media [10]) [%] | Herbicidal activity with respect to [%] AMARE [11] [%] | Herbicidal activity with respect to [%] ALOMY [12] [%]
Cc1ccc2c(c1)[C@H](Nc1nnc(C(=O)N(C)C)c(N)n1)[C@@H](C)C2 [Example 1.40] | 100 | 80 | 100 | 100 | 100 | 100 | 100 | 90 | 100 | 100 | 100 |  |  | 
Nc1nc(NC2CCCc3cc(F)ccc32)nnc1C(F)(F)F (racemic) [Example 1.46] | 80 |  | 100 | 100 | 90 | 100 | 100 |  | 90 | 100 | 100 | 100 |  | 
Nc1nc(N[C@@H]2CCCc3ccccc32)nnc1Cl [Example 1.4] | 90 | 80 | 100 | 100 | 100 | 100 | 100 |  | 100 | 100 | 100 | 90 | 90 | 
Nc1nc(N[C@@H]2CCc3ccccc32)nnc1Cl [Example 1.59] | 80 |  | 100 | 100 | 90 | 80 | 80 |  |  | 80 |  | 100 |  | 
CS(=O)(=O)c1nnc(N[C@@H]2CCCc3ccccc32)nc1N [Example 1.66] | 100 | 90 | 100 | 100 | 100 | 100 | 100 | 100 | 80 | 100 | 100 | 100 |  | 
CNC(=O)c1nnc(N[C@H]2c3cc(C)ccc3C[C@@H]2C)nc1N [Example 1.41] | 100 | 80 | 100 | 100 | 100 | 100 | 100 |  | 100 | 100 | 100 |  | 80 | 
CNC(=O)c1nnc(N[C@@H]2CCc3ccc(C)cc32)nc1N [Example 1.76] |  |  |  |  |  | 100 | 100 | 100 | 100 | 100 | 100 | 100 | 80 | 80
Cc1ccc2c(c1)[C@H](Nc1nnc(C(=O)N(C)C)c(N)n1)CC2 [Example 1.77] |  | 90 |  |  |  | 100 | 100 | 90 | 100 | 100 | 100 | 100 |  | 
